SMILES strings stand for the structures.

For assay [1], the system named is IP-10 (interferon-gamma inducible protein-10). Briefly: Inflammatory mediator in bronchoalveolar lavage, LPS-induced asthma/COPD model (ELISA). Conditions: ovalbumin + LPS model. The class given is in vivo, mice. The method, then: In order to examine whether the extract of the present invention has the effect of inhibiting inflammatory mediators in a bronchoalveolar lavage in an LPS-induced asthma/chronic obstructive pulmonary disease model, the expression pattern of the inflammatory mediator IP-10 (interferon-gamma inducible protein-10) in the bronchoalveolar lavage obtained in Test Example 7-2 was measured using an ELISA assay, and the results of the measurement are shown in Table 10 below.
Background: In an ELISA, binding on a coated surface is turned into a signal by an enzyme label.

The subject of another assay is IL-17 (interleukin 17). Briefly: T cell-derived cytokine from lung tissue, LPS-induced asthma/COPD model (ELISA). The class given is in vivo, mice. Conditions: ovalbumin + LPS model. The method, then:
(§1) In order to examine whether the extract of the present invention has the effect of inhibiting T cell-derived cytokine isolated from the lung tissue of an LPS-derived asthma/chronic obstructive pulmonary disease model, the following test was performed.
(§2) Specifically, the LPS-induced asthma/chronic obstructive pulmonary disease model was prepared by treatment with each of the extract of Example 2 and a comparative drug in the same manner as described in Test Example 7-1. At 6 hours after the final challenge, the mice were anesthetized by intraperitoneal injection with ketamine and xylazine, and lung tissue was obtained from the mice. The lung tissue was cut finely with a blade and incubated with 5 ml of 1× Trypsin-EDTA and 1000 units of chollagenase at 37° C. for 10 minutes. Then, the tissue was passed through a 100 μm mesh to collect only immune cells. To stimulate T cells among the collected cells, 1×10^5 cells and anti-CD28 (1 μg/ml) were added to a 96-well plate coated with anti-CD3 (1 μg/ml) and were incubated in an incubator at 37° C. for 12 hours. Next, the supernatant was collected, and the amounts of the cytokines IL-17 (interleukin 17) and IFN-γ (interferon-γ) in the supernatant were measured using an ELISA (enzyme-linked immunosorbent assay).

A further assay concerns IFN-γ (interferon-γ). Described as above. The class given is in vivo, mice. Particulars: ovalbumin + LPS model. The method, then:
as §1, §2

Assay [2] concerns invasion of inflammatory cells into lung tissue. Briefly: Invasion of inflammatory cells into lung tissue, LPS-induced asthma/COPD model (H&E score). The class given is in vivo, mice. Particulars: ovalbumin + LPS model. The method, then:
Then, the lung was isolated, embedded with paraffin, sectioned to a thickness of […], and stained with H&E (hematoxylin-eosin). The invasion of inflammatory cells into a portion surrounding the airway was measured (see FIG. 3), and the inflammations of the airway and the pulmonary parenchyma were compared and scored.

Assay [3] deals with inflammatory cells in pulmonary bronchoalveolar lavage. The assay can be described thus: Inflammatory cells in pulmonary bronchoalveolar lavage, E. coli-EV-induced asthma/COPD model. The format is in vivo, mice. The method, then:
Whether the extract of the present invention has the effect of inhibiting pulmonary bronchial inflammation in an E. coli-EV-induced asthma/chronic obstructive pulmonary disease model was evaluated.
Specifically, a mixture of 10 ng of E. coli-EV and PBS was intranasally administered a total of four times (days 0, 1, 2 and 7) into C57BL/6 male mice (6 weeks old; provided from the Animal Laboratory in Biotech Center, Pohang University of Science & Technology) to sensitize the mice. At 14, 15, 21 and 22 days from the first sensitization date, 10 ng of E. coli-EV was challenged into the nasal cavity to induce asthma and chronic obstructive pulmonary disease. In addition, at 14, 15, 21 and 22 days at which the challenge was performed, each of 1.0% CMC, 100, 200 and 400 mg/10 ml/kg of the extract of Example 2, 1 mg/10 ml/kg of the comparative drug dexamethason and 10 mg/10 ml/kg of the comparative drug montelukast was orally administered twice a day. At 48 hours after the final challenge, the mice were anesthetized by intraperitoneal administration of ketamine and xylazine, and the organ of the mice was exposed and a catheter was inserted therein. Then, the bronchoalveoli were laved with each of 0.8 and 0.7 ml of sterile phosphate buffered saline to obtain a bronchoalveolar lavage The bronchoalveolar lavage was centrifuged at 4° C. at 1000 rpm for 5 minutes, and the supernatant was removed. 2 ml of 10% FBS-IMDM (fetal bovine serum—Iscove's Modified Dulbecco's Medium) was added to the cells which were then counted. Then, the cells were cytospun, plated on a slide, and Diff-Quick stained. At least 300 inflammatory cells were observed by the staining method and classified into eosinophils, macrophages, neutrophils and lymphocytes, and the cell numbers of the groups treated with dexamethason, montelukast and the extract of Example 2 were compared with the ratios of inflammatory cells in the pulmonary bronchoalveolar lavages of the negative control group and the positive control group, thereby evaluating the inhibitory effects of the test materials against airway inflammation.

In assay [4] the test system is MCP-1 (monocyte chemoattractant protein-1). Briefly: Inflammatory mediator in bronchoalveolar lavage, E. coli-EV-induced model (ELISA). The class given is in vivo, mice. As to the method: (§3) The expression patterns of the inflammatory mediators MCP-1 (monocyte chemoattractant protein-1) and MIP-1α (macrophage inflammatory protein-1α) in the bronchoalveolar lavage obtained in Test Example 8-1 were measured using an ELISA assay, and the results of the measurement are shown in Table 14 below.

Assay [5] has as its system MIP-1α (macrophage inflammatory protein-1α). The description is as above. The format is in vivo, mice. The method, then:
as §3

The next assay concerns IFN-γ. The assay can be described thus: T cell-derived cytokine from lung tissue, E. coli-EV-induced model (ELISA). The format is in vivo, mice. The method, then: In order to examine whether the extract of the present invention has the effect of inhibiting T cell-derived cytokine isolated from the lung tissue of an E. coli-EV-derived asthma/chronic obstructive pulmonary disease model, the following test was performed.
Specifically, the […] asthma/chronic obstructive pulmonary disease model was prepared by treatment with each of the extract of Example 2 and a comparative drug in the same manner as described in Test Example 8-1. At 6 hours after the final challenge, the mice were anesthetized by intraperitoneal injection with ketamine and xylazine, and lung tissue was obtained from the mice. The lung tissue was cut finely with a blade and incubated with 5 ml of 1× Trypsin-EDTA and 1000 units of chollagenase at 37 °C for 10 minutes. Then, the tissue was passed through a 100 μm mesh to collect only immune cells. To stimulate T cells among the collected cells, 1×10^5 cells and anti-CD28 (1 μg/ml) were added to a 96-well plate coated with anti-CD3 (1 μg/ml) and were incubated in an incubator at 37° C. for 12 hours. Next, the supernatant was collected, and the amounts of cytokines in the supernatant were measured using an ELISA assay.

The test system of assay [6] is airway constriction of the sensitized guinea pigs. Briefly: Test for airway constriction inhibition (in vivo), airway resistance AUC after ovalbumin aerosol. Particulars: oral dose 10 mg/kg.

`C[C@@H]1C[C@H]2[C@@H]3CCC4=CC(=O)C=C[C@]4(C)[C@@]3(F)[C@@H](O)C[C@]2(C)[C@@]1(O)C(=O)CO` [Dexamethason, dexamethason]: the “IP-10 inhibition rate (%)” value in [1] (1 mg/kg b.i.d.) worked out at 4.09%. The “IL-17 inhibition rate (%)” value with IL-17 (interleukin 17) (1 mg/kg b.i.d.) stood at 23.12%. In addition, in the assay with IFN-γ (interferon-γ) (1 mg/kg b.i.d.), the “IFN-γ inhibition rate (%)” value amounted to 15.19%. Also, the “Inhibition rate (%) of invasion of inflammatory cells into lung tissue” value in [2] (1 mg/kg b.i.d.) is on record as 28.87%. Moreover, in [3] (1 mg/kg b.i.d.), the “Inhibition rate(%) Eosinophils” value was 1.1%, the “Inhibition rate(%) Macrophages” value came out at 24.7% and the “Inhibition rate(%) Total cells” value is 9.2%. Also, the “Inhibition rate(%) MCP-1” value in assay [4] (1 mg/kg b.i.d.) came out at 1.2%. The “Inhibition rate(%) MIP-1α” value in assay [5] (1 mg/kg b.i.d.) came out at 8.3%. Further, the “IFN-γ inhibition rate (%)” value with IFN-γ (1 mg/kg b.i.d.) came to 1.13%.

As for `CC(C)(O)c1ccccc1CC[C@@H](SCC1(CC(=O)O)CC1)c1cccc(/C=C/c2ccc3ccc(Cl)cc3n2)c1` [montelukast], the “IP-10 inhibition rate (%)” value in assay [1] (10 mg/kg b.i.d.) came out at 1.80%. Moreover, in the assay on IL-17 (interleukin 17) (10 mg/kg b.i.d.), the “IL-17 inhibition rate (%)” value came out at 68.42%. In addition, the “IFN-γ inhibition rate (%)” value with IFN-γ (interferon-γ) (10 mg/kg b.i.d.) was 14.50%. For the same molecule, in assay [2] (10 mg/kg b.i.d.), the “Inhibition rate (%) of invasion of inflammatory cells into lung tissue” value amounted to 8.25%. Also, in [3] (10 mg/kg b.i.d.), the “Inhibition rate(%) Eosinophils” value worked out at 15.4%, the “Inhibition rate(%) Macrophages” value was determined as 1.3% and the “Inhibition rate(%) Total cells” value was 1.2%. Besides, the “Inhibition rate(%) MCP-1” value in assay [4] (10 mg/kg b.i.d.) was 11.5%. Moreover, in assay [5] (10 mg/kg b.i.d.), the “Inhibition rate(%) MIP-1α” value is listed as 4.2%. The “Airway constriction inhibition rate (%)” value in assay [6] is recorded as 53%. Moreover, in the assay on IFN-γ (10 mg/kg b.i.d.), the “IFN-γ inhibition rate (%)” value worked out at 0.23%.

(Values after patent US20140030368A1, “COMPOSITION FOR PREVENTING OR TREATING A RESPIRATORY DISEASE CONTAINING A MIXED HERBAL EXTRACT OF CNIDIUM OFFICINALE ROOT AND POLYGONI CUSPIDATI ROOT” (WHANIN PHARMACEUTICAL CO., LTD., priority 2011, published 2014).)
